Results: paper PMC7288026, “Novel Class of Chalcone Oxime Ethers as Potent Monoamine Oxidase-B and Acetylcholinesterase Inhibitors” (Molecules, 2020)
Where “and” joins values, the source holds several entries; their conditions need not be identical. Equal entries are not always repeated. Where two headings read alike, the source gives them in different places.

Key:
MAO-B = target: T1, MAO-B (Homo sapiens, UniProt P27338); experiment: biochemical; conditions: for IC50: mean ± standard error of duplicates, reference compounds after 30 min preincubation with enzyme, read-out: IC50 (µM) MAO-B; for remaining activity at 1 µM: read-out: Residual Activity (%) MAO-B (1.0 µM); for SI (selectivity index, ratio of IC50 MAO-A to MAO-B): MAO-A vs. MAO-B IC50 ratio
T1 construct: purchased Sigma-Aldrich
T1 sequence (P27338 1-520): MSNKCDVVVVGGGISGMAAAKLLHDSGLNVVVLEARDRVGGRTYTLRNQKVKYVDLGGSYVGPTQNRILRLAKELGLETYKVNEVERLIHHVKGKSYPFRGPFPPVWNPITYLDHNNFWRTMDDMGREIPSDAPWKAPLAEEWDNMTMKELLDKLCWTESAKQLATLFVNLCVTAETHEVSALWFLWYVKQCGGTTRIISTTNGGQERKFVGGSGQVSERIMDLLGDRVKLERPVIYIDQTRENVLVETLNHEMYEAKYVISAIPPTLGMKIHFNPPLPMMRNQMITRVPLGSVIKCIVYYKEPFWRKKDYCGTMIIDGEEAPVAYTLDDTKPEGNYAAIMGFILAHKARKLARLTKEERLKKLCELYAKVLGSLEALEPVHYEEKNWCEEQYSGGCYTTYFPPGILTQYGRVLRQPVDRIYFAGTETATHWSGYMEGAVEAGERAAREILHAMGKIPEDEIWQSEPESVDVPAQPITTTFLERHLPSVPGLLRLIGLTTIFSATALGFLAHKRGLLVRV
Protocol: Recombinant hMAO-A and hMAO-B activities were assayed while using kynuramine (0.06 mM) and benzylamine (0.3 mM) as substrates, respectively, as described previously. […] AChE activity was measured using Type VI-S from Electrophorus electricus in the presence of 0.5 mM 5,5’-dithiobis(2-nitrobenzoic acid) and 0.5 mM acetylthiocholine iodide, as described previously. Enzymes and chemicals were purchased from Sigma–Aldrich (St. Louis, MO, USA). […]

recombinant hMAO-A = target: T2, recombinant hMAO-A (Homo sapiens, UniProt P21397); experiment: MAO-A inhibition assay (kynuramine substrate); assay type: biochemical; conditions: for IC50: mean ± standard error of duplicates, reference compounds after 30 min preincubation with enzyme
T2 construct: purchased Sigma-Aldrich
T2 sequence (P21397 1-527): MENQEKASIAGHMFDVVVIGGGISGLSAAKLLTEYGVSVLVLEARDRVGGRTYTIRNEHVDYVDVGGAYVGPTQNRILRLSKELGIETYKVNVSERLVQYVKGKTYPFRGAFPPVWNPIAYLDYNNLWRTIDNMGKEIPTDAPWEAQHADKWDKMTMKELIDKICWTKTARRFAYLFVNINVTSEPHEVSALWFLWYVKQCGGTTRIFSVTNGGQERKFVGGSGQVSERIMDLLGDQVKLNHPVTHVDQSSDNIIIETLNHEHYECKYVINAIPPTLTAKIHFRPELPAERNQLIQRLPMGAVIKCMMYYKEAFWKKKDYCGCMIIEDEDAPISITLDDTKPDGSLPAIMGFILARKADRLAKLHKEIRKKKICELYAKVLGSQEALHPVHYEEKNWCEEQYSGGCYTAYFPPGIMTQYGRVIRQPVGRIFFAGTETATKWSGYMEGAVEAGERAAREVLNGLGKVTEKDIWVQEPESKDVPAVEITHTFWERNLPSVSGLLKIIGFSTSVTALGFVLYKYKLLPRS
Protocol: Recombinant hMAO-A and hMAO-B activities were assayed while using kynuramine (0.06 mM) and benzylamine (0.3 mM) as substrates, respectively, as described previously. […] AChE activity was measured using Type VI-S from Electrophorus electricus in the presence of 0.5 mM 5,5’-dithiobis(2-nitrobenzoic acid) and 0.5 mM acetylthiocholine iodide, as described previously. Enzymes and chemicals were purchased from Sigma–Aldrich (St. Louis, MO, USA).
AChE inhibitory activities were also determined, except at a concentration of 10 µM. […] Kinetic experiments were carried out at five substrate and three inhibitor concentrations.

[1] = target: T3, AChE (Type VI-S from Electrophorus electricus) (Electrophorus electricus, UniProt O42275); experiment: AChE inhibition assay (DTNB / acetylthiocholine iodide); assay type: biochemical; conditions: for remaining activity at 10 µM / Residual Activity (%) AChE (10 µM): mean ± standard error of duplicate experiments
T3 construct: purchased Sigma-Aldrich Type VI-S
Protocol: AChE activity was measured using Type VI-S from Electrophorus electricus in the presence of 0.5 mM 5,5’-dithiobis(2-nitrobenzoic acid) and 0.5 mM acetylthiocholine iodide, as described previously. Enzymes and chemicals were purchased from Sigma–Aldrich (St. Louis, MO, USA).
Kinetic experiments were carried out at five substrate and three inhibitor concentrations.

[2] = compound at 1.0 µM, mean ± standard error of duplicate experiments, read-out: Residual Activity (%) MAO-A (1.0 µM)
[3] = compound at 10 µM, read-out: Residual Activity (%) AChE (10 µM)
[4] = read-out: Residual Activity (%) MAO-A (1.0 µM), compound at 1.0 µM, mean ± standard error of duplicate experiments

T3 sequence (O42275 24-633): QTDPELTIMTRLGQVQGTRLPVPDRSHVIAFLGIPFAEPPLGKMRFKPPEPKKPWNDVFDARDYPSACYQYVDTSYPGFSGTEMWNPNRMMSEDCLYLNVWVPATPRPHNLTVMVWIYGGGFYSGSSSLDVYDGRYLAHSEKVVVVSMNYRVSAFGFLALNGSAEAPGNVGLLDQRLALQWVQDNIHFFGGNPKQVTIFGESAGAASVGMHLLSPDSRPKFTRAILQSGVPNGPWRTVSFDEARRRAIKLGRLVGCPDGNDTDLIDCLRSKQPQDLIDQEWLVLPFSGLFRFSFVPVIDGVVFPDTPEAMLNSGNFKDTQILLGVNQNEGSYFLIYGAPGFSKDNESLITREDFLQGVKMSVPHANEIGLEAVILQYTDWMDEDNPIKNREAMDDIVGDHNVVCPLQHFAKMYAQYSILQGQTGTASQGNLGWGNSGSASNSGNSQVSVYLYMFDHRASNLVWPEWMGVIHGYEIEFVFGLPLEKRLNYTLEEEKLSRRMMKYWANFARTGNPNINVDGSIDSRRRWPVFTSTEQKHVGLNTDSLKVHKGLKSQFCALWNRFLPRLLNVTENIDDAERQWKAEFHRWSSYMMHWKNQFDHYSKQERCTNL

Compound | IC50 (MAO-B) [µM] | remaining activity at 1 µM (MAO-B) [%] | remaining activity at 1 µM (recombinant hMAO-A; [2]) [%] | IC50 (recombinant hMAO-A) [µM] | IC50 [1] [µM] | remaining activity at 10 µM [1, 3] [%] | SI (selectivity index, ratio of IC50 MAO-A to MAO-B) (MAO-B) | Residual Activity (%) AChE (10 µM) ([1]; compound at 10 µM) [%] | Residual Activity (%) MAO-A (1.0 µM) (recombinant hMAO-A; compound at 1.0 µM, mean ± standard error of duplicate experiments, 1 µM) [%] | MAO-A potency relative to pargyline (times more potent) (recombinant hMAO-A; ratio of IC50 values) [times] | MAO-A potency relative to toloxatone (times more potent) (recombinant hMAO-A; ratio of IC50 values) [times] | MAO-B potency relative to clorgyline (times more potent) (MAO-B) | MAO-B potency relative to lazabemide (times more potent) (MAO-B) [times] | remaining activity at 1 µM (recombinant hMAO-A; [4]) [%] | remaining activity at 1 µM (MAO-B; compound at 1.0 µM, mean ± standard error of duplicate experiments) [%] | remaining activity at 10 µM ([1]; read-out: Residual Activity (%) AChE (10 µM), compound at 10 µM) [%]
COc1ccc(C(/C=C/c2ccccc2)=N\Oc2ccc(C(C)=O)cc2)cc1 [COE-16] | > 10 | 97.8 ± 0.08 | 93.4 ± 3.44 | > 10 | > 40 | 77.3 ± 6.62 |  |  |  |  |  |  |  |  |  | 
COc1ccc(C(=O)/C=C/c2ccc(O/N=C(\C)c3ccc(OC)cc3)cc2)cc1 [COE-2] | 0.26 ± 0.055 | 27.6 ± 2.44 | 69.9 ± 0.51 | > 10 | 15.2 ± 0.55 | 66.5 ± 3.36 | >38.5 |  |  |  |  |  |  |  |  | 
COc1ccc(/C=C/C(=N/Oc2ccc(/C=C/C(=O)c3ccccc3)cc2)c2ccc(OC)cc2)cc1 [COE-19] | 0.32 ± 0.015 | 19.2 ± 3.06 | 85.3 ± 0.99 | > 10 | 5.35 ± 0.68 | < 50 | >31.3 | 39.0 ± 0.45 |  |  |  |  |  |  |  | 
COc1cccc(/C=C/C(=O)c2ccc(O/N=C(\C)c3cccs3)cc2)c1 [COE-13] | 0.13 ± 0.0069 | 31.9 ± 9.75 | < 50 | 0.88 ± 0.03 | > 40 | 57.6 ± 1.96 | 6.8 |  | 46.2 ± 1.07 | 2.8 | 1.1 |  |  |  |  | 
O=C(/C=C/c1ccc(ON=C(c2ccccc2)c2ccccc2)cc1)c1ccc(F)cc1 [COE-7] | 0.028 ± 0.0016 | 2.48 ± 0.15 | 91.7 ± 6.43 | 11 ± 1.22 | > 40 | 76.2 ± 1.02 | 392.9 |  |  |  |  | 68 times and 67 times | 1.5 |  |  | 
COc1ccc(C(/C=C/c2ccccc2)=N\Oc2ccc(C(=O)/C=C/c3cc(OC)c(OC)c(OC)c3)cc2)cc1 [COE-24] | > 10 | 87.4 ± 2.81 | 88.9 ± 0.98 | > 10 | > 40 | 72.5 ± 2.91 |  |  |  |  |  |  |  |  |  | 
COc1ccc(/C=C/C(=O)c2ccc(ON=C3CCCCC3)cc2)cc1 [COE-10] | 0.21 ± 0.01 | 21.6 ± 1.22 | 67.1 ± 2.02 | > 10 | 9.42 ± 0.031 | < 50 | >47.6 | 47.6 ± 0.93 |  |  |  |  |  |  |  | 
C/C(=N\Oc1ccc(/C=C/C(=O)c2cccc3ccccc23)cc1)c1cccs1 [COE-9] | 0.037 ± 0.0057 | 9.91 ± 1.83 |  | 7.64 ± 0.16 | 8.39 ± 2.14 | < 50 | 20.6 | 46.7 ± 4.27 |  |  |  |  |  | 71.4 ± 0.51 |  | 
COc1ccc(/C=C/C(=O)c2ccc(O/N=C(\C)c3ccc(F)cc3)cc2)cc1 [COE-11] | 1.82 ± 0.022 | 68.5 ± 1.83 | 86 ± 6.58 | > 10 | > 40 | 87.2 ± 0.47 | >5.5 |  |  |  |  |  |  |  |  | 
COc1ccc(C(=O)/C=C/c2ccc(O/N=C(\C)c3ccccc3)cc2)cc1 [COE-1] | 0.28 ± 0.041 | 29.9 ± 5.25 | 94.4 ± 2.99 | > 10 | > 40 | 77.6 ± 2.64 | >35.7 |  |  |  |  |  |  |  |  | 
COc1ccc(/C=C/C(=N/Oc2ccc(C(C)=O)cc2)c2ccc(OC)cc2)cc1 [COE-17] | 0.72 ± 0.015 | 17.6 ± 2.77 | 80.9 ± 2.01 | > 10 | > 40 | 80.3 ± 1.39 | >13.9 |  |  |  |  |  |  |  |  | 
COc1ccc(C(=O)/C=C/c2ccc(ON=C(c3ccccc3)c3ccccc3)cc2)cc1 [COE-3] | 0.048 ± 0.021 | 21.6 ± 4.88 | 87.3 ± 1 | > 10 | > 40 | 77.1 ± 0.66 | >208.3 |  |  |  |  |  |  |  |  | 
COc1cc(/C=C/C(=O)c2ccc(ON=C(c3ccccc3)c3ccccc3)cc2)cc(OC)c1OC [COE-15] | 0.95 ± 0.029 | 36.9 ± 9.49 | 95 ± 3.03 | > 10 | > 40 | 56.9 ± 1.4 | >10.5 |  |  |  |  |  |  |  |  | 
COc1ccc(/C=C/C(=O)c2ccc(O/N=C(\C)c3cccc4ccccc34)cc2)cc1OC [COE-14] | 1.58 ± 0.031 | 63.7 ± 1.39 | 91.1 ± 3.84 | > 10 | 13.2 ± 0.84 | 62.2 ± 4.19 | >6.3 |  |  |  |  |  |  |  |  | 
C/C(=N\Oc1ccc(/C=C/C(=O)c2ccccc2)cc1)c1ccc(F)cc1 [COE-5] | 1.12 ± 0.1 | 57.5 ± 7.01 | 95.1 ± 2.68 | > 10 | 7.06 ± 1.5 | < 50 | >8.9 | 46.5 ± 0.71 |  |  |  |  |  |  |  | 
Cc1ccc(/C=C/C(=O)c2ccc(O/N=C3\CCc4ccccc43)cc2)cc1 [COE-12] | 0.27 ± 0.056 |  | 95.7 ± 2.02 | > 10 | > 40 | 72 ± 1.95 | >37.0 |  |  |  |  |  |  |  | 40.5 ± 0.1 | 
COC(=O)c1ccc(O/N=C(/C=C/c2ccc(OC)cc2)c2ccc(OC)cc2)cc1 [COE-18] | 0.85 ± 0.12 | 33.3 ± 0.52 | 88.1 ± 0.99 | > 10 | 10.6 ± 0.26 | 58.3 ± 5.3 | >11.8 |  |  |  |  |  |  |  |  | 
COc1ccc(/C=C/C(=O)c2ccc(O/N=C(/C=C/c3ccc(OC)cc3)c3ccc(OC)cc3)cc2)cc1 [COE-23] | 0.15 ± 0.021 | 25.8 ± 4.78 | 85.1 ± 4.01 | > 10 | 9.16 ± 0.021 | 57.3 ± 1.34 | >66.7 |  |  |  |  |  |  |  |  | 
COc1ccc(/C=C/C(=N/Oc2ccc(/C=C/C(=O)c3ccc(OC)cc3)cc2)c2ccc(OC)cc2)cc1 [COE-20] | 0.35 ± 0.011 | 21 ± 0.42 | 89.7 ± 4.51 | > 10 | 11.2 ± 1.33 | 60.6 ± 5.74 | >28.6 |  |  |  |  |  |  |  |  | 
COc1ccc(C(=O)/C=C/c2ccc(O/N=C3\CCc4ccccc43)cc2)cc1 [COE-4] | 0.059 ± 0.012 | 4.31 ± 1.22 |  | 19.3 ± 0.21 | > 40 |  | 32.7 |  |  |  |  |  |  | 83.7 ± 1.54 |  | 62.1 ± 1.51
